Results reported in US6365593B2, “Methylxanthines in the diagnosis and treatment of autistic disorder” (Repligen Corporation, priority 2000, dated 2002).
Entries after “also recorded” stand apart in the source; their conditions may differ.

Key:
7-MX level in urine = assay: Double blind study: urinary 7-MX in autistic children after secretin or placebo; format: in vivo, human; conditions: groups 0 and 1, basal vs one week after secretin
Text: The urine samples of a double blind study on the effects of secretin on autistic children were available for further investigation on the changes of 7-MX after secretin treatment. Participants were divided into two groups. One group received secretin first, then placebo, and the other group received placebo first, then secretin. Three samples were collected for each subject: (i) basal urine, (ii) one week after secretin, (iii) one week after placebo. The changes of 7-MX level are shown in FIG. 8 (changes of 7-MX levels in double blind group “0”) and FIG. 9 (changes of 7-MX in double blind group “1”) for the two groups of patients. […] Only one subject in group 1 was an exception, where the basal 7-MX level was 10 times higher than the average.

[1] = test system: symptoms of autistic disorder; conditions: individuals diagnosed with autistic disorder; cited from earlier work
[2] = test system: 7-MX levels in the first morning urine; assay: 7-MX levels in first morning urine of autistic subjects after secretin infusion (time course); format: in vivo, human
Protocol: Urine samples from individuals, e.g., children, suspected of having autistic disorder are collected in 50 ml polypropylene centrifuge tubes and stored at a temperature below freezing, e.g., at −20° C. The samples are later thawed and centrifuged before pre-purification by solid phase extraction using e.g., SEP-PAK™ columns. The following is a suitable protocol for SEP-PAK™ extraction of one urine sample:
Suitable HPLC conditions to detect and analyze the methylxanthines and xanthines in a urine sample are as follows:
Samples are normalized for urinary output and variations in dilution using a standard creatinine assay. A portion of each sample is assayed to determine the creatinine content. Each sample is then diluted with water to achieve a standard creatinine concentration of […] in 100 μl of the sample.
Once the urine samples are properly pretreated, the level of methylxanthine, e.g., 7-MX, or xanthine is determined. […]
Samples of urine from autistic and non-autistic subjects were collected and analyzed for the presence of various metabolites before and after secretin treatment. Urine samples were analyzed by HPLC with a 4.5×100 mm C18 column detected at 215 nm and 280 nm. […]
The 7-MX levels in the first morning urine of autistic subjects after secretin treatment were monitored. […]

## secretin: a hormone shown to improve symptoms of autistic disorder; stimulates secretion of pancreatic bicarbonate fluid
7-MX level in urine
  change of urinary 7-MX level one week after secretin: increased or stayed at the same level, but did not decrease; also recorded: increased the excretion of 7-MX and other methylxanthines
[1]
  effect on symptoms of autistic disorder: improve symptoms
[2]; autistic children, first morning urine, after secretin infusion
  change of 7-MX level (HPLC peak RT5.5) in urine after secretin treatment: increase in size after secretin treatment in some children; also recorded: increases during the first week after secretin infusion and then decreases; also recorded: increased, and then decreased after about one week
[2]; one autistic child, first treatment about 4 μg, second about 15 μg secretin
  dose dependence of urinary 7-MX level after secretin: a higher dose of secretin would lead to a higher level of 7-MX in the urine
